In publication PMC5218480 (PLoS ONE, 2017):

Test system: MV-4-11 cells
Assay: Gene expression microarray analysis (Affymetrix PrimeView) and GSEA
Assay type: cell-based, human
Set-up: RFU PODN (11730768_x_at) / Fold change /veh PODN (11730768_x_at) / RFU LINC00158 (11744669_a_at) / Fold change /veh LINC00158 (11744669_a_at) / RFU DUSP10 (11751237_a_at) / Fold change /veh DUSP10 (11751237_a_at) / RFU ID3 (11757404_x_at) / Fold change /veh ID3 (11757404_x_at) / RFU PLEKHG5 (11737974_s_at) / Fold change /veh PLEKHG5 (11737974_s_at) / RFU LRRC4B (11730491_at) / Fold change /veh LRRC4B (11730491_at) / RFU GIMAP4 (11747438_a_at) / Fold change /veh GIMAP4 (11747438_a_at) / RFU KRT8 (11758183_x_at) / Fold change /veh KRT8 (11758183_x_at) / RFU CNN1 (11734310_a_at) / Fold change /veh CNN1 (11734310_a_at) / RFU VPS37D (11726825_at) / Fold change /veh VPS37D (11726825_at) / RFU C10orf10 (11716522_x_at) / Fold change /veh C10orf10 (11716522_x_at) / RFU KIR2DL2 /// KIR2DL4 /// KIR2DL5A /// KIR2DL5B /// KIR2DS1 /// KIR2DS2 /// KIR2DS3 /// KIR2DS4 /// KIR3DL3 /// KIR3DL3 /// KIR3DS1 (11738374_at) / Fold change /veh KIR2DL2 /// KIR2DL4 /// KIR2DL5A /// KIR2DL5B /// KIR2DS1 /// KIR2DS2 /// KIR2DS3 /// KIR2DS4 /// KIR3DL3 /// KIR3DL3 /// KIR3DS1 (11738374_at) / RFU C1QL1 (11718748_at) / Fold change /veh C1QL1 (11718748_at) / RFU TMPRSS4 (11747572_a_at) / Fold change /veh TMPRSS4 (11747572_a_at) / RFU HAMP (11756126_x_at) / Fold change /veh HAMP (11756126_x_at) / RFU RNFT2 (11725882_a_at) / Fold change /veh RNFT2 (11725882_a_at) / RFU NR4A2 (11747474_a_at) / Fold change /veh NR4A2 (11747474_a_at) / RFU ABCC12 (11746883_a_at) / Fold change /veh ABCC12 (11746883_a_at) / RFU TMEM136 (11760407_x_at) / Fold change /veh TMEM136 (11760407_x_at) / RFU CLDN22 /// WWC2 (11732394_at) / Fold change /veh CLDN22 /// WWC2 (11732394_at) / RFU HLA-DPB1 (11760878_x_at) / Fold change /veh HLA-DPB1 (11760878_x_at) / RFU SPINT1 (11716480_a_at) / Fold change /veh SPINT1 (11716480_a_at) / RFU GAP43 (11754022_s_at) / Fold change /veh GAP43 (11754022_s_at) / RFU A4GNT (11735810_at) / Fold change /veh A4GNT (11735810_at) / RFU PRB3 (11715151_x_at) / Fold change /veh PRB3 (11715151_x_at) / RFU TUBB4B (11761932_at) / Fold change /veh TUBB4B (11761932_at) / RFU CAPN14 (11732068_a_at) / Fold change /veh CAPN14 (11732068_a_at) / RFU TMCC2 (11721928_a_at) / Fold change /veh TMCC2 (11721928_a_at) / RFU IRGQ (11745062_a_at) / Fold change /veh IRGQ (11745062_a_at) / RFU FAM174B (11720279_a_at) / Fold change /veh FAM174B (11720279_a_at) / RFU TMPRSS4 (11748680_a_at) / Fold change /veh TMPRSS4 (11748680_a_at) / RFU FAM212B (11763350_a_at) / Fold change /veh FAM212B (11763350_a_at) / RFU PLEKHG5 (11743358_a_at) / Fold change /veh PLEKHG5 (11743358_a_at) / RFU ZSCAN30 (11745921_a_at) / Fold change /veh ZSCAN30 (11745921_a_at) / RFU CMKLR1 (11741424_a_at) / Fold change /veh CMKLR1 (11741424_a_at) / RFU LOC101060620 /// MAPK8IP1 (11723275_at) / Fold change /veh LOC101060620 /// MAPK8IP1 (11723275_at) / RFU SPTSSB (11747773_x_at) / Fold change /veh SPTSSB (11747773_x_at) / RFU PRSS12 (11739890_at) / Fold change /veh PRSS12 (11739890_at) / RFU BIN1 (11741810_x_at) / Fold change /veh BIN1 (11741810_x_at) / RFU WNT11 (11732464_a_at) / Fold change /veh WNT11 (11732464_a_at) / RFU C10orf10 (11716521_a_at) / Fold change /veh C10orf10 (11716521_a_at) / RFU C5orf56 (11738089_at) / Fold change /veh C5orf56 (11738089_at) / RFU CYB561 (11721691_x_at) / Fold change /veh CYB561 (11721691_x_at) / RFU ANKRD19P (11752326_a_at) / Fold change /veh ANKRD19P (11752326_a_at) / RFU OR2T12 /// OR2T33 /// OR2T8 (11738714_s_at) / Fold change /veh OR2T12 /// OR2T33 /// OR2T8 (11738714_s_at) / RFU VCAN (11748164_a_at) / Fold change /veh VCAN (11748164_a_at) / RFU JSRP1 (11732532_at) / Fold change /veh JSRP1 (11732532_at) / RFU KRTAP10-11 (11738290_x_at) / Fold change /veh KRTAP10-11 (11738290_x_at) / RFU MYO3A (11730013_a_at) / Fold change /veh MYO3A (11730013_a_at) / RFU EBF3 (11725865_a_at) / Fold change /veh EBF3 (11725865_a_at) / RFU CAMK2N1 (11719241_x_at) / Fold change /veh CAMK2N1 (11719241_x_at) / RFU C5orf56 (11738088_a_at) / Fold change /veh C5orf56 (11738088_a_at) / RFU OLFML3 (11715873_a_at) / Fold change /veh OLFML3 (11715873_a_at) / RFU LOC100653217 /// NTM (11731650_a_at) / Fold change /veh LOC100653217 /// NTM (11731650_a_at) / RFU MAPK11 (11762145_a_at) / Fold change /veh MAPK11 (11762145_a_at) / RFU FIZ1 (11724087_x_at) / Fold change /veh FIZ1 (11724087_x_at) / RFU OASL (11726364_x_at) / Fold change /veh OASL (11726364_x_at) / RFU SOX15 (11748057_x_at) / Fold change /veh SOX15 (11748057_x_at) / RFU CD79A (11719716_a_at) / Fold change /veh CD79A (11719716_a_at) / RFU HIST1H1D (11736915_at) / Fold change /veh HIST1H1D (11736915_at) / RFU CASKIN2 (11723855_a_at) / Fold change /veh CASKIN2 (11723855_a_at) / RFU LOC730098 (11760151_x_at) / Fold change /veh LOC730098 (11760151_x_at) / RFU OR4N2 (11742367_at) / Fold change /veh OR4N2 (11742367_at) / RFU PRRT2 (11749266_a_at) / Fold change /veh PRRT2 (11749266_a_at) / RFU SNX32 (11753110_a_at) / Fold change /veh SNX32 (11753110_a_at) / RFU CDHR5 (11726645_a_at) / Fold change /veh CDHR5 (11726645_a_at) / RFU RCAN1 (11760418_a_at) / Fold change /veh RCAN1 (11760418_a_at) / RFU FAM167A (11723789_a_at) / Fold change /veh FAM167A (11723789_a_at) / RFU FAM26E (11764081_at) / Fold change /veh FAM26E (11764081_at) / RFU ISYNA1 (11749810_s_at) / Fold change /veh ISYNA1 (11749810_s_at) / RFU ACY1 (11761880_at) / Fold change /veh ACY1 (11761880_at) / RFU 11764098_at / Fold change /veh 11764098_at / RFU SAMD14 (11745864_x_at) / Fold change /veh SAMD14 (11745864_x_at) / RFU NPB (11741838_a_at) / Fold change /veh NPB (11741838_a_at) / RFU TMPRSS6 (11731388_a_at) / Fold change /veh TMPRSS6 (11731388_a_at) / RFU KRTAP10-2 (11738614_at) / Fold change /veh KRTAP10-2 (11738614_at) / RFU ARHGAP8 /// PRR5-ARHGAP8 (11727945_x_at) / Fold change /veh ARHGAP8 /// PRR5-ARHGAP8 (11727945_x_at) / RFU KRTAP5-7 /// NADSYN1 (11734609_at) / Fold change /veh KRTAP5-7 /// NADSYN1 (11734609_at) / RFU RASL12 (11751679_a_at) / Fold change /veh RASL12 (11751679_a_at) / RFU CDKN2B (11736163_a_at) / Fold change /veh CDKN2B (11736163_a_at) / RFU PRF1 (11729649_at) / Fold change /veh PRF1 (11729649_at) / RFU, ZNF638 /// ZNF638-IT1 / Fold change vs veh, ZNF638 /// ZNF638-IT1 / RFU, PANK3 / Fold change vs veh, PANK3 / RFU, SH3YL1 / Fold change vs veh, SH3YL1 / RFU, ZEB2 / Fold change vs veh, ZEB2 / RFU, NRIP1 / Fold change vs veh, NRIP1 / RFU, PTTG1IP / Fold change vs veh, PTTG1IP / RFU, CAPN2 / Fold change vs veh, CAPN2 / RFU, MED14 / Fold change vs veh, MED14 / RFU, SNORA58 / Fold change vs veh, SNORA58 / RFU, C1orf63 / Fold change vs veh, C1orf63 / RFU, LRRFIP1 / Fold change vs veh, LRRFIP1 / RFU, NDUFAF7 / Fold change vs veh, NDUFAF7 / RFU, SLC12A2 / Fold change vs veh, SLC12A2 / RFU, IBTK / Fold change vs veh, IBTK / RFU, ESF1 / Fold change vs veh, ESF1 / Fold change vs veh, TMEM50B / RFU, TAOK1 / Fold change vs veh, TAOK1 / RFU, ACBD3 / Fold change vs veh, ACBD3 / RFU, TMA16 / Fold change vs veh, TMA16 / RFU, RWDD3 / Fold change vs veh, RWDD3 / RFU, BCAT1 / Fold change vs veh, BCAT1 / RFU, EDEM3 / Fold change vs veh, EDEM3 / RFU, TMEM33 / Fold change vs veh, TMEM33 / RFU, WDR75 / Fold change vs veh, WDR75 / RFU, AHCTF1 / Fold change vs veh, AHCTF1 / RFU, TFRC / Fold change vs veh, TFRC / RFU, ZDHHC17 / Fold change vs veh, ZDHHC17 / RFU, NOM1 / Fold change vs veh, NOM1 / RFU, ARL8B / Fold change vs veh, ARL8B / RFU, ZBTB11 / Fold change vs veh, ZBTB11 / RFU, TAMM41 / Fold change vs veh, TAMM41 / RFU, KIAA1704 /// LOC100996395 / Fold change vs veh, KIAA1704 /// LOC100996395 / RFU, ING1 / Fold change vs veh, ING1 / RFU, TRMT61B / Fold change vs veh, TRMT61B / RFU, FUBP3 / Fold change vs veh, FUBP3 / RFU, TP53 / Fold change vs veh, TP53 / RFU, TNKS2 / Fold change vs veh, TNKS2 / RFU, ZFP14 / Fold change vs veh, ZFP14 / RFU, ACTR2 / Fold change vs veh, ACTR2 / RFU, PPP3R1 / Fold change vs veh, PPP3R1 / RFU, PIK3R1 / Fold change vs veh, PIK3R1 / RFU, HNRNPA1 / Fold change vs veh, HNRNPA1 / RFU, RNF170 / Fold change vs veh, RNF170 / RFU, ZNF28 / Fold change vs veh, ZNF28 / RFU, RNGTT / Fold change vs veh, RNGTT / RFU, OGT / Fold change vs veh, OGT / RFU, BRD1 / Fold change vs veh, BRD1 / RFU, MARS / Fold change vs veh, MARS / RFU, ZNF655 / Fold change vs veh, ZNF655 / RFU, FAHD1 / Fold change vs veh, FAHD1 / RFU, BDP1 / Fold change vs veh, BDP1 / RFU, LRRCC1 / Fold change vs veh, LRRCC1 / RFU, ARID1A / Fold change vs veh, ARID1A / RFU, ZNF146 / Fold change vs veh, ZNF146 / RFU, ZNF330 / Fold change vs veh, ZNF330 / RFU, GPN3 / Fold change vs veh, GPN3 / RFU, C9orf123 / Fold change vs veh, C9orf123 / RFU, N4BP2L2 / Fold change vs veh, N4BP2L2 / RFU, ARFIP1 / Fold change vs veh, ARFIP1 / RFU, FAM179B / Fold change vs veh, FAM179B / RFU, BCL10 / Fold change vs veh, BCL10 / RFU, UHRF1BP1L / Fold change vs veh, UHRF1BP1L / RFU, BET1 / Fold change vs veh, BET1 / RFU, CNOT2 / Fold change vs veh, CNOT2 / RFU, ZNF268 / Fold change vs veh, ZNF268 / Fold change vs veh, ZNF507 / RFU, DGCR2 / Fold change vs veh, DGCR2 / RFU, WDSUB1 / Fold change vs veh, WDSUB1 / Fold change vs veh, HSP90B1 /// MIR3652 / RFU, ADSS / Fold change vs veh, ADSS / RFU, GK / Fold change vs veh, GK / RFU, ZNF148 / Fold change vs veh, ZNF148 / RFU, TAF9 / Fold change vs veh, TAF9 / RFU, SLC1A5 / Fold change vs veh, SLC1A5 / RFU, SLMO2 / Fold change vs veh, SLMO2 / RFU, ABCC4 / Fold change vs veh, ABCC4 / RFU, LOC101060439 /// RAP1B / Fold change vs veh, LOC101060439 /// RAP1B / RFU, RFX7 / Fold change vs veh, RFX7 / RFU, GTPBP10 / Fold change vs veh, GTPBP10 / RFU, CNEP1R1 / Fold change vs veh, CNEP1R1 / RFU, BIVM-ERCC5 /// ERCC5 / Fold change vs veh, BIVM-ERCC5 /// ERCC5 / RFU, ILF3 / Fold change vs veh, ILF3 / RFU 11762660_at / Fold change /veh 11762660_at / RFU VCAN (11757783_s_at) / Fold change /veh VCAN (11757783_s_at) / RFU DDX43 (11728927_at) / Fold change /veh DDX43 (11728927_at) / RFU KRT8 (11758188_x_at) / Fold change /veh KRT8 (11758188_x_at) / RFU NKD1 (11759106_at) / Fold change /veh NKD1 (11759106_at) / RFU SRD5A1 (11742802_a_at) / Fold change /veh SRD5A1 (11742802_a_at) / RFU TPSAB1 /// TPSB2 (11721975_s_at) / Fold change /veh TPSAB1 /// TPSB2 (11721975_s_at) / RFU GSTM3 (11746129_a_at) / Fold change /veh GSTM3 (11746129_a_at) / RFU IL23R (11737362_x_at) / Fold change /veh IL23R (11737362_x_at) / RFU TMEM51 (11727254_a_at) / Fold change /veh TMEM51 (11727254_a_at) / RFU PIWIL2 (11732686_x_at) / Fold change /veh PIWIL2 (11732686_x_at) / RFU ORM1 (11744905_x_at) / Fold change /veh ORM1 (11744905_x_at) / RFU CCDC152 (11743942_at) / Fold change /veh CCDC152 (11743942_at) / RFU ECM1 (11717891_a_at) / Fold change /veh ECM1 (11717891_a_at) / RFU IL23R (11748794_a_at) / Fold change /veh IL23R (11748794_a_at) / RFU TNFAIP8L3 (11732012_x_at) / Fold change /veh TNFAIP8L3 (11732012_x_at) / RFU MBOAT4 (11741988_at) / Fold change /veh MBOAT4 (11741988_at) / RFU 11764193_at / Fold change /veh 11764193_at / RFU TMEM53 (11763286_at) / Fold change /veh TMEM53 (11763286_at) / RFU MAGEB2 (11727129_at) / Fold change /veh MAGEB2 (11727129_at) / RFU TMEM200A (11744735_a_at) / Fold change /veh TMEM200A (11744735_a_at) / RFU CCDC152 (11751479_a_at) / Fold change /veh CCDC152 (11751479_a_at) / RFU FAM211A (11726209_a_at) / Fold change /veh FAM211A (11726209_a_at) / RFU RGS16 (11746705_a_at) / Fold change /veh RGS16 (11746705_a_at) / RFU VCAN (11755009_s_at) / Fold change /veh VCAN (11755009_s_at) / RFU RHOB (11743442_s_at) / Fold change /veh RHOB (11743442_s_at) / RFU RGS16 (11720943_a_at) / Fold change /veh RGS16 (11720943_a_at) / RFU RGS16 (11720944_at) / Fold change /veh RGS16 (11720944_at) / RFU, VPS4B / Fold change vs veh, VPS4B / RFU, CREB1 / Fold change vs veh, CREB1 / RFU, DNAJC13 / Fold change vs veh, DNAJC13 / RFU, GNAQ / Fold change vs veh, GNAQ / RFU, CDK5R1 / Fold change vs veh, CDK5R1 / RFU, ZRANB3 / Fold change vs veh, ZRANB3 / RFU, CUL4A / Fold change vs veh, CUL4A / RFU, CCNY / Fold change vs veh, CCNY / RFU, UFL1 / Fold change vs veh, UFL1 / RFU, COG3 / Fold change vs veh, COG3 / RFU, DIAPH2 / Fold change vs veh, DIAPH2 / RFU, SKA2 / Fold change vs veh, SKA2 / RFU, AFF3 / Fold change vs veh, AFF3 / RFU, LMF1 / Fold change vs veh, LMF1 / RFU, IPO11 / Fold change vs veh, IPO11 / RFU, DFFB / Fold change vs veh, DFFB / RFU, FOXP1 / Fold change vs veh, FOXP1 / RFU, CARD8 / Fold change vs veh, CARD8 / RFU, STRN3 / Fold change vs veh, STRN3 / RFU, ADK / Fold change vs veh, ADK / RFU, RASSF2 / Fold change vs veh, RASSF2 / RFU, WIPF1 / Fold change vs veh, WIPF1 / RFU, LARP1B / Fold change vs veh, LARP1B / RFU, RASA1 / Fold change vs veh, RASA1 / RFU, RB1 / Fold change vs veh, RB1 / RFU, PPFIA1 / Fold change vs veh, PPFIA1 / RFU, MAT2A / Fold change vs veh, MAT2A / RFU, CCT5 / Fold change vs veh, CCT5 / RFU, WDR92 / Fold change vs veh, WDR92 / RFU, CUX1 / Fold change vs veh, CUX1 / RFU, TTC7A / Fold change vs veh, TTC7A / RFU, TMEM135 / Fold change vs veh, TMEM135 / RFU, DEPTOR / Fold change vs veh, DEPTOR / RFU, CPM / Fold change vs veh, CPM / RFU, DNAJB6 / Fold change vs veh, DNAJB6 / RFU, CACNA2D3 / Fold change vs veh, CACNA2D3 / RFU, DTX4 / Fold change vs veh, DTX4 / RFU, TFCP2 / Fold change vs veh, TFCP2 / RFU, GMCL1 /// GMCL1P1 / Fold change vs veh, GMCL1 /// GMCL1P1 / RFU, AEBP2 / Fold change vs veh, AEBP2 / RFU, SNHG1 /// SNORD22 /// SNORD25 /// SNORD26 /// SNORD27 /// SNORD28 /// SNORD29 /// SNORD31 / Fold change vs veh, SNHG1 /// SNORD22 /// SNORD25 /// SNORD26 /// SNORD27 /// SNORD28 /// SNORD29 /// SNORD31 / Fold change (Aza/veh), C12orf56 (ProbeSet 11735607_a_at) / Fold change (ACY-1035/veh), C12orf56 (ProbeSet 11735607_a_at) / Fold change (Aza/veh), FGFR1OP (ProbeSet 11751329_s_at) / Fold change (ACY-1035/veh), FGFR1OP (ProbeSet 11751329_s_at) / Fold change (Aza/veh), VPS36 (ProbeSet 11739960_a_at) / Fold change (ACY-1035/veh), VPS36 (ProbeSet 11739960_a_at) / RFU SYPL1 (11715823_x_at) / Fold change /veh SYPL1 (11715823_x_at) / RFU IGFBP7 (11715501_s_at) / Fold change /veh IGFBP7 (11715501_s_at) / RFU REEP3 (11722064_at) / Fold change /veh REEP3 (11722064_at) / RFU IGLL1 (11728026_x_at) / Fold change /veh IGLL1 (11728026_x_at): dose or concentration left out as unconfirmed
Conditions: MV-4-11 cells, 48 hours

Q: `Nc1ccc(-c2cccs2)cc1NC(=O)c1ccc2c(c1)cc(C1CC1)n2CCN1CCOCC1` [ACY-1035] was tested. Which “RFU PLEKHG5 (11737974_s_at)” value did it give?
A: 47.67 RFU
